PubChem BioAssay (NCI)
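A five-concentration, 48-hour dose response in 96-well plates underlies each endpoint, interpolated linearly between surrounding concentrations. Abbreviation: GI50, concentration required for 50% inhibition of growth. At the TGI there is no net growth.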

Key:
Experiment in all cases: NCI anticancer screen, dose series, 48 h
SNB-75 CNS = test system: SNB-75 CNS
ACHN renal = test system: ACHN renal
NCI-H23 lung = test system: NCI-H23 lung
IGROV1 ovarian = test system: IGROV1 ovarian
A549 NSCLC = test system: A549 NSCLC
HCT-15 colon = test system: HCT-15 colon
MCF7 breast = test system: MCF7 breast
HS 578T breast = test system: HS 578T breast
BT-549 breast = test system: BT-549 breast
T-47D breast = test system: T-47D breast

Structure (SMILES)	TGI (SNB-75 CNS) [µM]	TGI (ACHN renal) [µM]	TGI (NCI-H23 lung) [µM]	TGI (IGROV1 ovarian) [µM]	TGI (A549 NSCLC) [µM]	TGI (HCT-15 colon) [µM]	TGI (MCF7 breast) [µM]	TGI (HS 578T breast) [µM]	TGI (BT-549 breast) [µM]	TGI (T-47D breast) [µM]	GI50 (HCT-15 colon) [µM]	GI50 (MCF7 breast) [µM]	GI50 (HS 578T breast) [µM]	GI50 (SNB-75 CNS) [µM]	GI50 (BT-549 breast) [µM]	GI50 (ACHN renal) [µM]	GI50 (IGROV1 ovarian) [µM]	GI50 (T-47D breast) [µM]	GI50 (A549 NSCLC) [µM]	GI50 (NCI-H23 lung) [µM]
CCOC(=O)C(=O)C1C(=O)Nc2ccccc21 (centres undefined)	> 100	> 100	> 100	> 100	> 100															
C[N+](C)([O-])CCCNc1c2ccccc2nc2cccc([N+](=O)[O-])c12	1.4	3.74	0.676		0.795	4.93	0.623	7.63	2.91	3.62										
CC(=N\O)/C(C)=N/O.CC(=N\O)/C(C)=N/O.CC(=N\O)/C(C)=N/O.CC(=N\O)/C(C)=N/O.[Cu].[Cu]	31.8	32.7		56.2	48.5	42.1	31.2	65.9	33.4	33.7	20.6	17.3	29.6	17.1	19	18.7	23.8	18.4	23	
Cc1cc(=O)c2cc(N=Cc3ccc([N+](=O)[O-])o3)ccc2o1	> 100	> 100	> 100	> 100	> 100	> 100	> 100	> 100	> 100	> 100										
Cn1cc(NC(=O)c2cc(NC(=O)Nc3cc(C(=O)Nc4cc(C(=O)NCCC(=N)N)n(C)c4)n(C)c3)cn2C)cc1C(=O)NCCC(=N)N	67.2	57.9	> 100	68.7	83.4	> 100														
CNC(=O)c1c(NC(=O)c2cccc(C(F)(F)F)c2)sc2c1CCC(=O)C2	5.27	1.34	7.56	2.26	> 34.3	1.51	2.84	45.9	2.83	2.29	0.249	0.283	0.425	0.575	0.352	0.323	0.339	0.305	0.387	0.318
Cc1[nH]c(C(=O)Nc2ccc(C(=O)N3CCNCC3)cc2OC(C)C)c(Cl)c1Cl	14.1	3.07	4.21	3.49		3.43	3.59	3.91	29	4.62	1.82	1.8	1.74	3.31	14.3	1.68	1.58	1.91		1.95
O=c1[nH]c(=O)n(C2CC(O)C(CO)O2)cc1C(OCC(F)(F)F)OCC(F)(F)F (centres undefined)	> 100	> 100	> 100	> 100	> 100															
CC1=C(SCc2ccccc2)C(=O)c2ccccc2C1=O	26.5	27.2	41.8	25.3		43.5	40.6		32.1	> 100										
CC(=O)O[C@H]1CC[C@@]2(C)C(CC[C@]3(C)C2CC[C@]2(C)Oc4c(C)cc(O)cc4C[C@@H]23)C1(C)C (some centres undefined)	8.12	17.5	21.6	30	21.2	14.9														
CC1=C(C)CC2(SC1)C(=O)c1ccccc1C2=O	> 100	> 100		> 100	> 100	> 100														
COc1ccccc1/C=C1\CCC(CNc2ccc(Cl)cc2)C1=O (centres undefined)	29.9	14.6	20.8	22.8	17	7.31														
O=C1CCC2CCc3cccc4oc1c2c34 (centres undefined)	> 100	> 100	> 100	> 100	> 100	> 100														
C=C1C(=O)O[C@H]2[C@H]1CC/C(CNC(=O)/C=C/c1cccc(OC)c1)=C\CC[C@@]1(C)O[C@@H]21	8.09	2.67	3.35	5.3	20.3	2.54		11.2	3.66		1.05		2.2	1.82	1.57	1.14	1.96		5.11	1.67
CCN(CC)CC(=O)/C=C/c1ccc(C)cc1	55.1	35.1	> 100	40.4	60.8	46														
CNS(=O)(=O)NN(C)S(=O)(=O)c1ccc(Cl)cc1	> 100	> 100	> 100	> 100	> 100	> 100														
CCOCC(=O)N[C@H]1CCc2cc(OC)c(OC)c(OC)c2-c2ccc(SC)c(=O)cc21	5.11	> 35.7	9.64	> 100	> 100	> 18.1	> 51.4			> 100										
COc1ccc(S(=O)(=O)N/N=C/CN2C(=O)c3ccccc3C2=O)cc1OC	> 100	> 100	> 100	> 100	> 100	> 100														
Cn1ccnc1C(c1nccn1C)C(C)(C)[N+](=O)[O-]	> 100	> 100			> 100	> 100														
O=C1O[C@H](C(Cl)(Cl)Cl)N2CCCC12 (some centres undefined)	> 100	> 100	> 100	> 100	> 100	> 100														
N=S(=O)(c1ccccc1)c1ccccc1[N+](=O)[O-] (centres undefined)	> 100	> 100	> 100	> 100	> 100	> 100														
CC1CCc2c(sc3ncnc(N/N=C/c4ccc(Cl)c(Cl)c4)c23)C1 (centres undefined)	61.6	58	79.8	> 100	34.4	> 100														

Structure (SMILES)	TGI (SNB-75 CNS) [µM]	TGI (ACHN renal) [µM]	TGI (NCI-H23 lung) [µM]	TGI (IGROV1 ovarian) [µM]	TGI (A549 NSCLC) [µM]	TGI (HCT-15 colon) [µM]	TGI (MCF7 breast) [µM]	TGI (HS 578T breast) [µM]	TGI (BT-549 breast) [µM]	TGI (T-47D breast) [µM]	GI50 (HCT-15 colon) [µM]	GI50 (MCF7 breast) [µM]	GI50 (HS 578T breast) [µM]	GI50 (SNB-75 CNS) [µM]	GI50 (BT-549 breast) [µM]	GI50 (ACHN renal) [µM]	GI50 (IGROV1 ovarian) [µM]	GI50 (T-47D breast) [µM]	GI50 (A549 NSCLC) [µM]	GI50 (NCI-H23 lung) [µM]
C=CCC12CCC(=O)C=C1CCC1(C2)OCCO1 (centres undefined)	> 100	> 100		> 100	> 100	> 100														
OCCN(CCO)c1cccc(N(CCO)CCO)c1	> 100	> 100	> 100		> 100	> 100														
CCNc1c(C(=O)N(CC)CC)c(=O)[nH]c2ncccc12	> 100	> 100	> 100	> 100	> 100	> 100														
Nc1ccc(-c2nc3ccccc3[nH]2)c(O)c1	> 100	82.9	66.3	> 100	> 100	> 100	> 100	71.7	> 100		> 100	30.3	21.5	87.2	50.9	24.3	> 100		35.3	20
COc1ccc(Nc2ncccc2/C=C/C(=O)c2cc(OC)c(OC)c(OC)c2)cc1	2.37	2.96	3.79	5.31		5.06	2.09	9.6	3.08	4.03	1.66	0.695	2.68	1.15	1.58	1.55	2	1.67		1.72
O=C(Cn1c(=O)c(-c2ccccc2)nc2ccccc21)c1cccnc1		> 100	> 100	> 100	> 100	> 100	> 100	> 100		> 100	> 100	> 100	> 100			> 100	> 100	> 100	> 100	> 100
CS(=O)(=O)N(CCC#N)c1ccc(/C=N/NC(=O)CC(=O)Nc2cccc(Cl)c2)cc1	> 100	> 100	> 100	> 100	> 100	> 100														
O=C1c2ccccc2-c2nccc3cc(Cl)nc1c23	9.56		2.4	1.91	> 94.1		2.72	14.2	> 100	1.72		1.3	1.99	1.93	7.11		0.586	0.385	5.15	1.12
N#CCCN(CCC#N)c1ccc(/C=C2\N=C(COc3ccc(Cl)cc3Cl)OC2=O)cc1	> 100		> 100	> 100	> 100	> 100														
Cc1cc2c(cc1C)[n+](=O)c(C(=O)/C=C/c1ccc(Cl)cc1)c(C)n2[O-]	45.5	62	65.6	63.7	80.4	> 100														
O=c1[nH]c(-c2ccccc2)nc2ccc(Cl)cc12		> 100	> 100		> 100	> 100														
NS(=O)(=O)c1ccc(C2C3=C(CCCC3=O)OC3=C2C(=O)c2ccccc2C3=O)cc1 (centres undefined)	1.17	2.53	1.15	1.2	3.53	3.46	0.752	9.4	2.35		1.33	0.221	1.27	0.259	1.12	1.24	0.347		1.42	0.198
CS(=O)(=O)OCCN1CCN(C(=O)c2cccc3c(Nc4ccc(S(N)(=O)=O)cc4)c4ccccc4nc23)CC1	> 100	> 100	> 100	> 100	> 100	> 60.6														
NC1CCCCC1N.O=C([O-])P(=O)([O-])[O-].[Na+].[Pt+4] (centres undefined)	> 100	> 100	> 100	> 100	> 100									> 100		> 100	> 100		> 100	> 100
C[C@]12CC/C(=N\N)C[C@@H]1CC[C@@H]1[C@@H]2CC[C@]2(C)/C(=N/N)CC[C@@H]12	> 100	> 100	> 100	> 100	> 100	> 100	> 100		> 100	> 100	> 100	> 100		> 100	> 100	> 100	> 100	> 100	> 100	> 100
O=S(=O)([O-])[O-].[Cl-].[NH2-].[NH2-].[NH2-].[NH2-].[Ru+3].c1ccc(-c2cccnc2)cc1	> 100	> 100	> 100	> 100	> 100	> 100					> 100			88.9		> 100	> 100		> 100	> 100
CCN(CC)c1ccc(N=C2C=C(C(=O)Nc3ccc(S(C)(=O)=O)cc3)C(=O)c3ccccc32)c(C)c1	> 100	> 100	> 100		> 100	> 100	> 100	> 100	> 100	> 100	5.28	> 100	1.87	3.08	0.831	> 100		51.9	49.6	82
O=C(CC1(O)C(=O)Nc2ccc(Br)cc21)c1ccc(Cl)cc1 (centres undefined)	77.7	> 100	> 100	> 100	> 100	> 100														
COc1cccc2c1C1(O)C2CCCC12OCCCO2 (centres undefined)	> 100	> 100	> 100	> 100	> 100	> 100														
CCN(CC)c1ccc(N=C2C=CC(=O)c3ncccc32)c(C)c1	28.9	12.7	18.6	21	26.1	10.8														
c1cc(C2CCCCC2)ccc1OCCCCCCN1CCNCC1	4.5	3.33	3.82	3.89	3.65	3.25	3.32	4.48		4.79	1.64	1.63	1.96	1.83		1.78	2.04	2.14	1.92	1.96
